In patent US10150737B2, “Compounds for controlling arthropods” (priority 2013, dated 2018):

Key:
Phaedon cochleariae = Phaedon cochleariae - spray test; type: in vivo; details: larvae on Chinese cabbage leaf discs, after 7 days
Description: (§1) Solvent: 78.0 parts by weight of acetone and 1.5 parts by weight of dimethylformamide
(§2) Emulsifier: alkylaryl polyglycol ether
(§3) To produce an appropriate active ingredient formulation, 1 part by weight of active ingredient is dissolved using the specified parts by weight of solvent and made up with water containing an emulsifier concentration of 1000 ppm until the desired concentration is attained. To produce further test concentrations, the preparation is diluted with emulsifier-containing water.
Discs of Chinese cabbage leaves (Brassica pekinensis) are sprayed with an active ingredient formulation of the desired concentration and, after drying, populated with larvae of the mustard beetle (Phaedon cochleariae).
After 7 days, efficacy in % is determined. 100% means that all the beetle larvae have been killed; 0% means that no beetle larvae have been killed.

Ctenocephalides felis = Ctenocephalides felis - oral test; type: in vivo; details: application rate 100 ppm in citrated cattle blood; after 2 days
Description: (§4) Solvent: dimethyl sulphoxide
For the purpose of producing an appropriate active ingredient formulation, 10 mg of active ingredient are mixed with 0.5 ml of dimethyl sulphoxide. Dilution with citrated cattle blood gives the desired concentration.
About 20 unfed adult cat fleas (Ctenocephalides felis) are placed into a chamber which is closed at the top and bottom with gauze. A metal cylinder whose bottom end is closed with parafilm is placed onto the chamber. The cylinder contains the blood/active ingredient preparation, which can be imbibed by the fleas through the parafilm membrane.
After 2 days, the kill in % is determined. 100% means that all of the fleas have been killed; 0% means that none of the fleas have been killed.

[1] = logP determination by HPLC on a reversed-phase column (C18); type: physicochemical; details: for logP^a): HPLC-MS method a); for log P: HPLC-MS
Tetranychus urticae = Tetranychus urticae - spray test, OP-resistant; type: in vivo; details: bean leaf discs, after 6 days
Description: as §1, §2, §3
Discs of bean leaves (Phaseolus vulgaris) infested by all stages of the greenhouse red spider mite (Tetranychus urticae) are sprayed with an active ingredient formulation of the desired concentration.
After 6 days, efficacy in % is determined. 100% means that all the spider mites have been killed; 0% means that none of the spider mites have been killed.

Spodoptera frugiperda = Spodoptera frugiperda - spray test; type: in vivo; details: caterpillars on maize leaf discs, after 7 days
Description: as §1, §2, §3
Leaf discs of maize (Zea mays) are sprayed with an active ingredient formulation of the desired concentration and, after drying, populated with caterpillars of the armyworm (Spodoptera frugiperda).
After 7 days, efficacy in % is determined. 100% means that all the caterpillars have been killed; 0% means that no caterpillars have been killed.

Boophilus microplus = Boophilus microplus - injection test; type: in vivo; details: application rate 20 μg/animal, injection into engorged adult female ticks, after 7 days
Description: as §4
To produce an appropriate active ingredient formulation, 10 mg of active ingredient are mixed with 0.5 ml of solvent and the concentrate is diluted with solvent to the desired concentration.
1 μl of the active ingredient solution is injected into the abdomen of 5 engorged adult female cattle ticks (Boophilus microplus). The animals are transferred into dishes and kept in a climate-controlled room.
Efficacy is assessed after 7 days by laying of fertile eggs. Eggs which are not visibly fertile are stored in a climate-controlled cabinet until the larvae hatch after about 42 days. An efficacy of 100% means that none of the ticks has laid any fertile eggs; 0% means that all the eggs are fertile.

Lucilia cuprina = Lucilia cuprina test; type: in vivo; details: application rate 100 ppm; L1 larvae; after 2 days
Description: as §4
(§5) To produce an appropriate active ingredient formulation, 10 mg of active ingredient are mixed with 0.5 ml of dimethyl sulphoxide, and the concentrate is diluted with water to the desired concentration.
About 20 L1 larvae of the Australian sheep blowfly (Lucilia cuprina) are transferred into a test vessel containing minced horsemeat and the active ingredient preparation of the desired concentration.
After 2 days, the kill in % is determined. 100% means that all the larvae have been killed; 0% means that none of the larvae have been killed.

Musca domestica = Musca domestica test; type: in vivo; details: application rate 100 ppm; adult houseflies; after 2 days
Description: as §4, §5
Vessels containing a sponge treated with sugar solution and the active ingredient formulation of the desired concentration are populated with 10 adult houseflies (Musca domestica).
After 2 days, the kill in % is determined. 100% means that all of the flies have been killed; 0% means that none of the flies have been killed.

[2] = reversed-phase column (C18), Table I-T3

SMILES | efficacy (Phaedon cochleariae; application rate 500 g/ha) | efficacy (kill) (Ctenocephalides felis) | logP^a) [1] | logP^a) [1, 2] | efficacy (Tetranychus urticae; application rate 500 g/ha) | efficacy (Spodoptera frugiperda; application rate 500 g/ha) | efficacy (laying of fertile eggs) (Boophilus microplus) | efficacy (kill) (Lucilia cuprina) | efficacy (Phaedon cochleariae; application rate 100 g/ha) | efficacy (Spodoptera frugiperda; application rate 100 g/ha) | efficacy (Tetranychus urticae; application rate 100 g/ha) | efficacy (Tetranychus urticae; application rate 20 g/ha) | efficacy (kill) (Musca domestica) | pest or weed control at 0.02 mg (Boophilus microplus; Rhipicephalus microplus, 168 h, read-out: efficacy (laying of fertile eggs)) | logP^a) ([1]; reversed-phase column (C18)) | log P [1, 2]
Cc1cc(C(F)(C(F)(F)F)C(F)(F)F)cc(C)c1-n1cc(-c2cccc(C(=O)NC3(C#N)CC3)c2F)cn1 [I-T3-10] | 100% | 100% | 4.2 | 4.2 | 100% | 100% | 100% | 100% |  |  |  |  |  |  |  | 
Cc1cc(C(F)(C(F)(F)F)C(F)(F)F)cc(C)c1-n1cc(-c2cc(C(=O)NC3(C#N)CC3)c(F)cc2Cl)cn1 [I-T3-12] | 100% | 100% | 4.7 | 4.7 |  | 100% | 100% | 80% |  |  |  |  |  |  |  | 
Cc1cc(C(F)(C(F)(F)F)C(F)(F)F)cc(C)c1-n1cc(-c2cc(C(=O)NC3(C#N)CC3)cc(C(F)(F)F)c2)cn1 [I-T3-18] | 100% | 100% | 4.7 | 4.7 |  | 100% | 100% | 100% |  |  |  |  |  |  |  | 
O=C(NCC(F)(F)F)c1cc(-c2cnn(-c3ccc(C(F)(C(F)(F)F)C(F)(F)F)cc3OC(F)(F)F)c2)ccc1Cl [I-T3-36] | 100% | 80% | 5.0 | 5.0 |  |  | 100% | 100% |  |  |  |  |  |  |  | 
O=C(NC1CSC1)c1cc(-c2cnn(-c3ccc(C(F)(C(F)(F)F)C(F)(F)F)cc3OC(F)(F)F)c2)ccc1Cl [I-T3-37] | 100% | 90% | 4.9 | 4.9 |  |  | 100% | 100% |  |  |  |  |  |  |  | 
CCc1cc(C(F)(C(F)(F)F)C(F)(F)F)ccc1-n1cc(-c2ccc(Cl)c(C(=O)NCC(F)(F)F)c2)cn1 [I-T3-40] |  | 100% | 4.9 | 4.9 |  |  | 100% | 100% | 100% | 100% |  |  |  |  |  | 
CCc1cc(C(F)(C(F)(F)F)C(F)(F)F)ccc1-n1cc(-c2ccc(Cl)c(C(=O)NC3CSC3)c2)cn1 [I-T3-41] |  | 95% | 4.9 | 4.9 |  |  | 100% | 90% | 100% | 100% | 100% |  |  |  |  | 
CCc1cc(C(F)(C(F)(F)F)C(F)(F)F)cc(C)c1-n1cc(-c2ccc(Cl)c(C(=O)NCC(F)(F)F)c2)cn1 [I-T3-45] | 100% | 95% | 5.0 | 5.0 | 100% | 100% | 100% | 100% |  |  |  |  |  |  |  | 
N#CC1(NC(=O)c2cc(-c3cnn(-c4c(F)cc(C(F)(F)F)cc4F)c3)ccc2Cl)CC1 [I-T3-49] |  | 100% | 3.2 | 3.2 |  |  | 100% | 100% | 100% |  |  | 100% |  |  |  | 
N#CC1(NC(=O)c2cc(-c3cnn(-c4ncc(C(F)(F)F)cc4Cl)c3)ccc2Cl)CC1 [I-T3-59] |  | 100% | 3.1 | 3.1 |  |  | 100% | 100% | 100% |  |  |  |  |  |  | 
CCc1cc(C(F)(C(F)(F)F)C(F)(F)F)cc(C)c1-n1cc(-c2cccc(C(=O)NC3(C#N)CC3)c2F)cn1 [I-T3-69] | 100% | 100% | 4.3 | 4.5 | 100% | 100% | 100% | 95% |  |  |  |  |  |  |  | 
CCc1cc(C(F)(C(F)(F)F)C(F)(F)F)cc(C)c1-n1cc(-c2cccc(C(=O)NC3CC3)c2F)cn1 [I-T3-70] | 100% | 95% | 4.3 | 4.7 | 90% | 100% | 100% | 100% |  |  |  |  |  |  |  | 
CCc1cc(C(F)(C(F)(F)F)C(F)(F)F)ccc1-n1cc(-c2cccc(C(=O)NC3(C#N)CC3)c2F)cn1 [I-T3-74] | 100% |  | 4.1 | 4.5 |  | 100% | 100% | 90% |  |  | 90% |  |  |  |  | 
CCc1cc(C(F)(C(F)(F)F)C(F)(F)F)ccc1-n1cc(-c2cccc(C(=O)NC3CC3)c2F)cn1 [I-T3-75] | 100% |  | 4.2 | 4.7 | 100% | 100% | 90% | 80% |  |  |  |  |  |  |  | 
CCc1cc(C(F)(C(F)(F)F)C(F)(F)F)ccc1-n1cc(-c2cncc(C(=O)NC3(C#N)CC3)c2)cn1 [I-T3-78] | 100% | 100% | 3.2 | 3.8 | 100% | 100% | 100% | 100% |  |  |  |  |  |  |  | 
CCc1cc(C(F)(F)C(F)(F)F)cc(C)c1-n1cc(-c2ccc(Cl)c(C(=O)NCC(F)(F)F)c2)cn1 [I-T3-82] |  | 95% | 4.0 | 4.0 |  |  | 100% | 100% | 100% | 100% | 100% |  |  |  |  | 
CCc1cc(C(F)(F)C(F)(F)F)cc(C)c1-n1cc(-c2ccc(Cl)c(C(=O)NC3CSC3)c2)cn1 [I-T3-83] |  | 95% | 4.6 | 4.6 |  |  | 100% | 100% | 100% | 100% | 100% |  |  |  |  | 
Cc1cc(C(F)(C(F)(F)F)C(F)(F)F)cc(C)c1-n1cc(-c2ncc(Cl)c(C(=O)NC3CC3)n2)cn1 [I-T3-121, 5-chloro-N-cyclopropyl-2-[1-[2,6-dimethyl-4-[1,2,2,2-tetrafluoro-1-(trifluoromethyl)ethyl]phenyl]pyrazol-4-yl]pyrimidine-4-carboxamide] |  |  |  |  |  |  |  |  |  |  |  |  | 80% | 80% |  | 
Cc1cc(C(F)(C(F)(F)F)C(F)(F)F)cc(C)c1-n1cc(-c2cnc(C3CC3)c(C(=O)NC3CC3)c2)cn1 [I-T3-140] |  | 100% |  |  |  |  | 100% | 100% | 100% | 100% |  |  |  |  | 4.2 | 4.2
Cn1ccc(NC(=O)c2cc(-c3cnn(-c4c(Cl)cc(C(F)(F)F)cc4Cl)c3)cnc2Cl)n1 [I-T3-146] |  | 100% |  |  |  |  | 100% | 90% |  |  | 100% |  |  |  | 2.8 | 2.8
